Test results reported in patent publication US20060079558A1, “R-isomer of 2-{2[N-(2-indanyl)-N-phenylamino]ethyl}piperidine and other dermal anesthetics” (Bridge Pharma. Inc., priority 2004, published 2006).
“Also recorded” adds a separate entry of the source.

What was measured:
[1] = system: skin on the back of male or female guinea pigs; assay: Dermal anesthetic activity, pin-prick method after dermal application; type: in vivo; conditions: for onset of dermal anesthetic activity (onset time): comparison of enantiomers and racemate, in words; for dermal anesthetic effects (anesthetic score): score after 30 min application, FIG. 1, 10% solution of base in water/DMSO, maximum = 6
Experimental: Approximately 18-24 hours before each experiment, the skin on the back of male or female guinea pigs was shaved and depilated with a commercially available hair remover. The anesthetic action of each agent following dermal application was determined using a “pin-prick” method as described by Aberg (Acta Pharmacol Toxicol, 1972, 31: 273-286). Before and at various intervals after treatment, the area of the skin was tested for the presence or absence of a skin twitch in response to six standardized dermal probings with a pointed metal “algesimeter” at a predetermined maximum load of 10 grams. The average number of probings not producing a skin twitch response was designated as the “anesthetic score”. In this test system no response to six stimuli represents a “maximal anesthetic activity”. In the present calculations, the dermal anesthetic activity was calculated from the time of removal of the test article formulation from the skin until skin twitch responses to all but one pinprick were identified. In experiments on the dermal anesthetic activity, a single area of skin 1 inch square was marked off on the middle of the back of each animal. This area was covered by a 1 inch square, 16 layer thick gauze pad onto which was deposited 0.45 ml of a 10% solution of the test agent dissolved in a mixture of water and DMSO. The gauze pad was covered with a 1.5 inch square sheet of Saran Wrap™ which was attached to the surrounding skin with tape. The entire area was then covered by wrapping an elastic bandage around the trunk of the animal. After a predetermined duration of treatment, the coverings were removed and the skin assessed for the presence of anesthesia as described above. Dermal anesthesia tests were performed at ten-minute intervals to measure onset time and duration of dermal anesthetic activity; comparisons were made with reference compounds and vehicle. All test compounds were in the base form and dissolved in DMSO/water when tested for dermal anesthesia.

[2] = Comparison studies of dermal toxicity; type: in vivo; conditions: in words
[3] = cited from earlier work

Row | Compound | onset of dermal anesthetic activity (onset time) [1] | dermal anesthetic effects (anesthetic score) [1] | dermal toxicity [2] | local anesthetic activity ([3]; racemate, U.S. Pat. No. 6,413,987) | tissue toxicity ([3]; racemic mixture, as described in U.S. Pat. No. 6,413,987)
1 | c1ccc(N(CCC2CCCCN2)C2Cc3ccccc3C2)cc1 (stereo not shown) [S-LAC-34, reference compound] | longer onset of action | 2.6 |  |  | 
2 | c1ccc(N(CC[C@H]2CCCCN2)C2Cc3ccccc3C2)cc1 [R-LAC-34, R-2-{2-[N-(2-indanyl)-N-phenylamino]ethyl}piperidine] | shorter onset of action than both the racemate and the S-isomer; also recorded: significantly shorter; also recorded: shorter onset time than the racemic mixture or the S-isomer | 3.5 | low dermal toxicity |  | 
3 | c1ccc(N(CCC2CCCCN2)C2Cc3ccccc3C2)cc1 (racemic) [RS-LAC-34, 2-{2-[N-(2-indanyl)-N-phenylamino]ethyl}piperidine] |  |  |  | active local anesthetic compound | little, if any, tissue toxicity
